From patent publication US20220315554A1, “COMPOUNDS COMPRISING A […] LIGAND AND USE THEREOF” (priority 2019, published 2022)
Numbered stars: 1 amine (or outer) side, 2 acyl side, 3 side chain; on linkers, the order of the positions; unused ones are H or OH. Bridge positions count the residues as written; N and C are the ends. Peptide text beside a SMILES is read from it. * marks the point of attachment. NH(CH2)3NH(O2Oc(DOTA)) = O=C(O)CN1CCN(CC(=O)O)CCN(CC(=O)NCCOCCOCC(=O)NCCCN*)CCN(CC(=O)O)CC1; NH(CH2)3NHDOTA = O=C(O)CN1CCN(CC(=O)O)CCN(CC(=O)NCCCN*)CCN(CC(=O)O)CC1; Pyridine(2,6-diCH2) = c1cc(C[*:1])nc(C[*:2])c1; Pyridine(3,5-bisCH2) = c1ncc(C[*:2])cc1C[*:1]; mXylylene = c1cc(C[*:1])cc(C[*:2])c1; Hexanoyl = CCCCCC(=O)*; CO = O=C([*:1])[*:2]; NHPentyl = CCCCCN*

Columns and labels:
Human recombinant FAP = target: T1, Human recombinant FAP (Homo sapiens, UniProt Q12884); assay: FRET-based FAP protease activity assay; format: biochemical; set-up: purchased R&D systems 3715-SE; settings: pIC50 Category (Activity), FRET substrate, 37° C.
T1 sequence (Q12884 1-760): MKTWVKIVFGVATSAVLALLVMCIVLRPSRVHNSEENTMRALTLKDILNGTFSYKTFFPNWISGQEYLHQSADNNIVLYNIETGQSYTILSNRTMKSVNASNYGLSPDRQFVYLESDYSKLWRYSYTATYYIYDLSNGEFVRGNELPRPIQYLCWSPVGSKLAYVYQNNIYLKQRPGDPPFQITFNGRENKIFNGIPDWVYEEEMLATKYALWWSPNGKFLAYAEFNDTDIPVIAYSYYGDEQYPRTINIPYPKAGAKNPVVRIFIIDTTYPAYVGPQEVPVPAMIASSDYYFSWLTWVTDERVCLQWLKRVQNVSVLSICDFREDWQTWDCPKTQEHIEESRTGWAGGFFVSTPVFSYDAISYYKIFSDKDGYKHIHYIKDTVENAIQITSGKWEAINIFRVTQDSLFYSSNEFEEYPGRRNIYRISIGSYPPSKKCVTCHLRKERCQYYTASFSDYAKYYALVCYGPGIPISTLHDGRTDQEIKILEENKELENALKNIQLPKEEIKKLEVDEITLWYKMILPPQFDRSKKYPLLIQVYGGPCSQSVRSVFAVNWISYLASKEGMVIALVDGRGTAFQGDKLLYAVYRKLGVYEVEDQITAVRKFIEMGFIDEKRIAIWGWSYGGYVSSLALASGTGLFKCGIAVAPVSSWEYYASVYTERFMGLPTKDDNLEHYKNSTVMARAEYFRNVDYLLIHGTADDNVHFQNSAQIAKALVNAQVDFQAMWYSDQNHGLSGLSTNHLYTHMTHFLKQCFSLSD

[1] = target: T2, FAP-expressing human WI-38 fibroblasts (Homo sapiens, UniProt Q12884); assay: Competitive FACS binding assay; settings: pIC50 Category (FACS), competition with 3 nM Cy5-labeled compound, 4° C., 1 hour
T2 construct: FAP-expressing human WI-38 fibroblasts (ECACC) were cultured in EMEM; host or cells: WI-38 human fibroblasts
T2 sequence (Q12884 1-760): T1 sequence (Q12884 1-760)
Procedure: Cells were analyzed in an Attune NxT flow cytometer. […]

| Structure (SMILES) | IC50 (Human recombinant FAP; recombinant human FAP) [nM] | IC50 ([1]; WI-38 fibroblasts) [nM] | IC50 (Human recombinant FAP) [nM] | IC50 [1] [nM] |
| --- | --- | --- | --- | --- |
| CCCCCNC(=O)N[C@H]1CSCc2cccc(c2)CSC[C@@H](C(=O)N[C@@H](CC(=O)O)C(N)=O)NC(=O)[C@H](Cc2ccccc2)NC(=O)[C@H](CCC(N)=O)NC(=O)[C@H]([C@@H](C)O)NC(=O)[C@@H]2CCCN2C(=O)[C@@H]2CCCN2C1=O [3BP-3425, PentylNH-urea-[Cys(3MeBn)-Pro-Pro-Thr-Gln-Phe-Cys]-Asp-NH2] ({NHPentyl-CO}-CPPTQFCD-NH2; linker 1-7 via mXylylene) | < 10 | 10 to 79.4 | – | – |
| CCCCCC(=O)N[C@H]1CSCc2cccc(c2)CSC[C@@H](C(=O)N[C@@H](CC(=O)O)C(N)=O)NC(=O)[C@H](Cc2ccccc2)NC(=O)[C@H](CCC(=O)NCCCNC(=O)CN2CCN(CC(=O)O)CCN(CC(=O)O)CCN(CC(=O)O)CC2)NC(=O)[C@H]([C@@H](C)O)NC(=O)[C@@H]2CCCN2C(=O)[C@@H]2CCCN2C1=O [3BP-3472, Hex-[Cys(3MeBn)-Pro-Pro-Thr-Glu(NH-Apr-DOTA')-Phe-Cys]-Asp-NH2] (Hexanoyl-CPPTE(NH(CH2)3NHDOTA)FCD-NH2; linker 1-7 via mXylylene) | > 1000 | > 1000 | – | – |
| CCCCCC(=O)N[C@H]1CSCc2cccc(c2)CSC[C@@H](C(=O)N[C@@H](CC(=O)O)C(N)=O)NC(=O)[C@H](Cc2ccccc2)NC(=O)[C@H](CCC(=O)NCCCNC(=O)COCCOCCNC(=O)CN2CCN(CC(=O)O)CCN(CC(=O)O)CCN(CC(=O)O)CC2)NC(=O)[C@H]([C@@H](C)O)NC(=O)[C@@H]2CCCN2C(=O)[C@@H]2CCCN2C1=O [3BP-3473, Hex-[Cys(3MeBn)-Pro-Pro-Thr-Glu(NH-Apr-O2O-DOTA')-Phe-Cys]-Asp-NH2] (Hexanoyl-CPPTE(NH(CH2)3NH(O2Oc(DOTA)))FCD-NH2; linker 1-7 via mXylylene) | 100 to 794 | 100 to 794 | – | – |
| CCCCCC(=O)N[C@H]1CSCc2cccc(n2)CSC[C@@H](C(=O)N[C@@H](CC(=O)O)C(N)=O)NC(=O)[C@H](Cc2ccccc2)NC(=O)[C@H](CCC(N)=O)NC(=O)[C@H]([C@@H](C)O)NC(=O)[C@@H]2CCCN2C(=O)[C@@H]2CCCN2C1=O [3BP-3518, Hex-[Cys(2Lut)-Pro-Pro-Thr-Gln-Phe-Cys]-Asp-NH2] (Hexanoyl-CPPTQFCD-NH2; linker 1-7 via Pyridine(2,6-diCH2)) | < 10 | < 10 | – | – |
| CCCCCC(=O)N[C@H]1CSCc2cncc(c2)CSC[C@@H](C(=O)N[C@@H](CC(=O)O)C(N)=O)NC(=O)[C@H](Cc2ccccc2)NC(=O)[C@H](CCC(N)=O)NC(=O)[C@H]([C@@H](C)O)NC(=O)[C@@H]2CCCN2C(=O)[C@@H]2CCCN2C1=O [3BP-3519, Hex-[Cys(3Lut)-Pro-Pro-Thr-Gln-Phe-Cys]-Asp-NH2] (Hexanoyl-CPPTQFCD-NH2; linker 1-7 via Pyridine(3,5-bisCH2)) | < 10 | < 10 | – | – |
| CCCCCC(=O)N[C@H]1CSCc2cc(cc(CN3CCN(C(=O)CN4CCN5CCN6CCN(CC4)CC(=O)[O][Eu]([O]C(=O)C6)[O]C(=O)C5)CC3)c2)CSC[C@@H](C(=O)N[C@@H](CC(=O)O)C(N)=O)NC(=O)[C@H](Cc2ccccc2)NC(=O)[C@H](CCC(N)=O)NC(=O)[C@H]([C@@H](C)O)NC(=O)[C@@H]2CCCN2C(=O)[C@@H]2CCCN2C1 [3BP-3661, Europium-Complex of Hex-[Cys(tMeBn(DOTA-PP))-Pro-Pro-Thr-Gln-Phe-Cys]-Asp-NH2] | – | – | < 10 | < 10 |
| CCCCCC(=O)N[C@H]1CSCc2cc(CSCCNC(=O)CN3CCN4CCN5CCN(CC3)CC(=O)[O][Eu]([O]C(=O)C4)[O]C(=O)C5)cc(c2)CSC[C@@H](C(=O)O)NC(=O)[C@H](Cc2ccccc2)NC(=O)[C@H](CCC(N)=O)NC(=O)[C@H]([C@@H](C)O)NC(=O)[C@@H]2CCCN2C(=O)[C@@H]2CCCN2C1 [3BP-3662, Europium-Complex of Hex-[Cys(tMeBn(DOTA-AET))-Pro-Pro-Thr-Gln-Phe-Cys]-OH] | – | – | < 10 | < 10 |
| CCCCCC(=O)N[C@H]1CSCc2cc(CSCCNC(=O)CN3CCN(CC(=O)O)CCN(CC(=O)O)CCN(CC(=O)O)CC3)cc(c2)CSC[C@@H](C(=O)O)NC(=O)[C@H](Cc2cccnc2)NC(=O)[C@H](CCC(N)=O)NC(=O)[C@H]([C@@H](C)O)NC(=O)[C@@H]2CCCN2C(=O)[C@@H]2CCCN2C1 [3BP-3664, Hex-[Cys(tMeBn(DOTA-AET))-Pro-Pro-Thr-Gln-Mpa-Cys]-OH] | – | – | < 10 | < 10 |
